# Patent publication US7465729B2, “Methods of treatment of menopause and perimenopause using eszopiclone” (Sepracor Inc., priority 2004, dated 2008)
# Key:
# [1] = test system: women with insomnia secondary to perimenopause or menopause; test: Clinical study: discontinuation rates; type: in vivo; conditions: 3 mg nightly for four weeks
# Method: (§1) The study was aimed at observing efficacy of eszopiclone 3 mg compared to placebo in the treatment of insomnia secondary to perimenopause or menopause. The study was a multicenter, randomized, double-blind, placebo-controlled, parallel-group study. […] The primary method of analysis compared the post-randomization results between the two treatment groups.
# (§2) Subjects were women with insomnia secondary to perimenopause or menopause. Subjects were perimenopausal or menopausal and had insomnia symptoms including ≧45 minutes sleep latency (SL) and total sleep time (TST) ≦6 hours. Perimenopausal/menopausal symptoms predated the onset of sleep disturbance symptoms. The patient population was predominately Caucasian (77.2%). The mean age was 49, with a range of 40-60.
# (§3) A total of 410 subjects were randomized. Among them, 201 received 3 mg of eszopiclone (ESZ) nightly (at bedtime) for four weeks and 209 received matching placebo (PBO).
# [2] = test system: women with insomnia secondary to perimenopause or menopause; test: Clinical study: number of nocturnal awakenings due to hot flashes; type: in vivo; conditions: for Number of Nocturnal Awakenings due to Hot Flashes, Observed Value, Mean (SD) / Number of Nocturnal Awakenings due to Hot Flashes, Observed Value, 25th Percentile / Number of Nocturnal Awakenings due to Hot Flashes, Observed Value, 75th Percentile / Number of Nocturnal Awakenings due to Hot Flashes, Observed Value, Maximum / Number of Nocturnal Awakenings due to Hot Flashes, Observed Value, Median / Number of Nocturnal Awakenings due to Hot Flashes, Observed Value, Minimum / Number of Nocturnal Awakenings due to Hot Flashes, Change from Baseline, 25th Percentile / Number of Nocturnal Awakenings due to Hot Flashes, Change from Baseline, 75th Percentile / Number of Nocturnal Awakenings due to Hot Flashes, Change from Baseline, Maximum / Number of Nocturnal Awakenings due to Hot Flashes, Change from Baseline, Mean (SD) / Number of Nocturnal Awakenings due to Hot Flashes, Change from Baseline, Median / Number of Nocturnal Awakenings due to Hot Flashes, Change from Baseline, Minimum / Number of Nocturnal Awakenings due to Hot Flashes, Change from Baseline, Least Squares Means (SE) [3] / Number of Nocturnal Awakenings due to Hot Flashes, Observed Value, Least Squares Means (SE) [2]: ITT; for Number of Nocturnal Awakenings due to Hot Flashes, Change from Baseline, Least Squares Means (SE) [3]: ANCOVA; for Number of Nocturnal Awakenings due to Hot Flashes, Observed Value, Least Squares Means (SE) [2]: ANOVA
# Method: as §1, §2, §3
smiles,measurement,setting,value
"CN1CCN(C(=O)O[C@H]2c3nccnc3C(=O)N2c2ccc(Cl)cn2)CC1 [Eszopiclone, (+)6-(5-chloropyrid-2-yl)-5-(4-methylpiperazin-1-yl)carbonyloxy-7-oxo-6,7-dihydro-5H-pyrrolo[3-4-b]pyrazine]",discontinuation rate,[1],11.9%
same,"Number of Nocturnal Awakenings due to Hot Flashes, Observed Value, Mean (SD)","[2]; Baseline (average of all pre-DB observations), 3 mg group",1.3 (1.2)
same,"Number of Nocturnal Awakenings due to Hot Flashes, Observed Value, 25th Percentile","[2]; Baseline, 3 mg group",0.3
same,"Number of Nocturnal Awakenings due to Hot Flashes, Observed Value, 75th Percentile","[2]; Baseline, 3 mg group",2.0
same,"Number of Nocturnal Awakenings due to Hot Flashes, Observed Value, Maximum","[2]; Baseline, 3 mg group",6.0
same,"Number of Nocturnal Awakenings due to Hot Flashes, Observed Value, Median","[2]; Baseline, 3 mg group",1.0
same,"Number of Nocturnal Awakenings due to Hot Flashes, Observed Value, Minimum","[2]; Baseline, 3 mg group",0.0
same,"Number of Nocturnal Awakenings due to Hot Flashes, Change from Baseline, 25th Percentile","[2]; DB Average, 3 mg nightly",−1.1
same,"Number of Nocturnal Awakenings due to Hot Flashes, Change from Baseline, 75th Percentile","[2]; DB Average, 3 mg nightly",0.0
same,"Number of Nocturnal Awakenings due to Hot Flashes, Change from Baseline, Maximum","[2]; DB Average, 3 mg nightly",1.5
same,"Number of Nocturnal Awakenings due to Hot Flashes, Change from Baseline, Mean (SD)","[2]; DB Average, 3 mg nightly",−0.7 (1.0)
same,"Number of Nocturnal Awakenings due to Hot Flashes, Change from Baseline, Median","[2]; DB Average, 3 mg nightly",−0.5
same,"Number of Nocturnal Awakenings due to Hot Flashes, Change from Baseline, Minimum","[2]; DB Average, 3 mg nightly",−6.0
same,"Number of Nocturnal Awakenings due to Hot Flashes, Observed Value, 25th Percentile","[2]; DB Average, 3 mg nightly",0.0
same,"Number of Nocturnal Awakenings due to Hot Flashes, Observed Value, 75th Percentile","[2]; DB Average, 3 mg nightly",0.9
same,"Number of Nocturnal Awakenings due to Hot Flashes, Observed Value, Maximum","[2]; DB Average, 3 mg nightly",2.7
same,"Number of Nocturnal Awakenings due to Hot Flashes, Observed Value, Mean (SD)","[2]; DB Average, 3 mg nightly",0.5 (0.6)
same,"Number of Nocturnal Awakenings due to Hot Flashes, Observed Value, Median","[2]; DB Average, 3 mg nightly",0.2
same,"Number of Nocturnal Awakenings due to Hot Flashes, Observed Value, Minimum","[2]; DB Average, 3 mg nightly",0.0
same,"Number of Nocturnal Awakenings due to Hot Flashes, Change from Baseline, Least Squares Means (SE) [3]","[2]; DB Average, 3 mg nightly",−0.7 (0.1)
same,"Number of Nocturnal Awakenings due to Hot Flashes, Observed Value, Least Squares Means (SE) [2]","[2]; DB Average, 3 mg nightly",0.5 (0.1)
same,"nocturnal awakenings due to hot flashes, LS means","[2]; Week 1, 3 mg nightly",0.3 per night
same,"Number of Nocturnal Awakenings due to Hot Flashes, Change from Baseline, 25th Percentile","[2]; Week 1, 3 mg nightly",−1.2
same,"Number of Nocturnal Awakenings due to Hot Flashes, Change from Baseline, 75th Percentile","[2]; Week 1, 3 mg nightly",0.0
same,"Number of Nocturnal Awakenings due to Hot Flashes, Change from Baseline, Maximum","[2]; Week 1, 3 mg nightly",0.8
same,"Number of Nocturnal Awakenings due to Hot Flashes, Change from Baseline, Mean (SD)","[2]; Week 1, 3 mg nightly",−0.7 (1.0)
same,"Number of Nocturnal Awakenings due to Hot Flashes, Change from Baseline, Median","[2]; Week 1, 3 mg nightly",−0.5
same,"Number of Nocturnal Awakenings due to Hot Flashes, Change from Baseline, Minimum","[2]; Week 1, 3 mg nightly",−6.0
same,"Number of Nocturnal Awakenings due to Hot Flashes, Observed Value, 25th Percentile","[2]; Week 1, 3 mg nightly",0.0
same,"Number of Nocturnal Awakenings due to Hot Flashes, Observed Value, 75th Percentile","[2]; Week 1, 3 mg nightly",1.0
same,"Number of Nocturnal Awakenings due to Hot Flashes, Observed Value, Maximum","[2]; Week 1, 3 mg nightly",3.0
same,"Number of Nocturnal Awakenings due to Hot Flashes, Observed Value, Mean (SD)","[2]; Week 1, 3 mg nightly",0.5 (0.7)
same,"Number of Nocturnal Awakenings due to Hot Flashes, Observed Value, Median","[2]; Week 1, 3 mg nightly",0.2
same,"Number of Nocturnal Awakenings due to Hot Flashes, Observed Value, Minimum","[2]; Week 1, 3 mg nightly",0.0
same,"Number of Nocturnal Awakenings due to Hot Flashes, Change from Baseline, Least Squares Means (SE) [3]","[2]; Week 1, 3 mg nightly",−0.7 (0.1)
same,"Number of Nocturnal Awakenings due to Hot Flashes, Observed Value, Least Squares Means (SE) [2]","[2]; Week 1, 3 mg nightly",0.5 (0.1)
same,"Number of Nocturnal Awakenings due to Hot Flashes, Change from Baseline, 25th Percentile","[2]; Week 2, 3 mg nightly",−1.0
same,"Number of Nocturnal Awakenings due to Hot Flashes, Change from Baseline, 75th Percentile","[2]; Week 2, 3 mg nightly",0.0
same,"Number of Nocturnal Awakenings due to Hot Flashes, Change from Baseline, Maximum","[2]; Week 2, 3 mg nightly",2.0
same,"Number of Nocturnal Awakenings due to Hot Flashes, Change from Baseline, Mean (SD)","[2]; Week 2, 3 mg nightly",−0.7 (1.0)
same,"Number of Nocturnal Awakenings due to Hot Flashes, Change from Baseline, Median","[2]; Week 2, 3 mg nightly",−0.6
same,"Number of Nocturnal Awakenings due to Hot Flashes, Change from Baseline, Minimum","[2]; Week 2, 3 mg nightly",−6.0
same,"Number of Nocturnal Awakenings due to Hot Flashes, Observed Value, 25th Percentile","[2]; Week 2, 3 mg nightly",0.0
same,"Number of Nocturnal Awakenings due to Hot Flashes, Observed Value, 75th Percentile","[2]; Week 2, 3 mg nightly",1.0
same,"Number of Nocturnal Awakenings due to Hot Flashes, Observed Value, Maximum","[2]; Week 2, 3 mg nightly",3.0
same,"Number of Nocturnal Awakenings due to Hot Flashes, Observed Value, Mean (SD)","[2]; Week 2, 3 mg nightly",0.5 (0.7)
same,"Number of Nocturnal Awakenings due to Hot Flashes, Observed Value, Median","[2]; Week 2, 3 mg nightly",0.0
same,"Number of Nocturnal Awakenings due to Hot Flashes, Observed Value, Minimum","[2]; Week 2, 3 mg nightly",0.0
same,"Number of Nocturnal Awakenings due to Hot Flashes, Change from Baseline, Least Squares Means (SE) [3]","[2]; Week 2, 3 mg nightly",−0.6 (0.1)
same,"Number of Nocturnal Awakenings due to Hot Flashes, Observed Value, Least Squares Means (SE) [2]","[2]; Week 2, 3 mg nightly",0.5 (0.1)
same,"Number of Nocturnal Awakenings due to Hot Flashes, Change from Baseline, 25th Percentile","[2]; Week 3, 3 mg nightly",−1.0
same,"Number of Nocturnal Awakenings due to Hot Flashes, Change from Baseline, 75th Percentile","[2]; Week 3, 3 mg nightly",0.0
